Legend:
[1] = test system: LNCaP cell line; conditions: VEGF 10 ng/mL or 10 nM DHT for 3, 6, 12 and 24 hr, Western blot densitometry, P<0.05 vs control
Method: In this example, to determine the responsiveness of Hexim-1 to androgen and VEGF in the epithelial prostate LNCap cell line, LNCap cells were treated with VEGF (10 ng/mL) or 10 nM dihydrotestosterone (DHT) for 3, 6, 12 and 24 hours, with the change in expression of Hexim-1 protein evaluated by Western blot.
FIG. 2A illustrates the epithelial prostate LNCaP cell line which was treated with VEGF (10 ng/ml) or 10 nM dihydrotestosterone (DHT) 10 nM for 3, 6, 12 and 24 hr. Protein extracts were obtained from each time point and the changes in the protein expression of Hexim-1, p-Akt and GAPDH evaluated by Western blot. The histogram indicates the ratio between p-AKT and GAPDH and the ratio of Hexim-1 to GAPDH as obtained by densitometry analysis of the Western blots. Data are expressed as means±SE of 4 independent experiments.

[2] = test system: PC3 cells; conditions: androgen independent PC3 cells; 10 nM DHT for indicated times; Western blot
Method: In FIG. 2B, PC3 cells were treated with 10 nM DHT for indicated times, cells were collected and cellular extracts were prepared and analyzed for Hexim-1 and GAPDH. The histogram indicates a ratio between Hexim-1 and GAPDH. Data are expressed as means±SE of 3 independent experiments.

[3] = target: androgen receptor (AR) (UniProt P19091)
UniProt P19091, sequence (P19091 whole entry): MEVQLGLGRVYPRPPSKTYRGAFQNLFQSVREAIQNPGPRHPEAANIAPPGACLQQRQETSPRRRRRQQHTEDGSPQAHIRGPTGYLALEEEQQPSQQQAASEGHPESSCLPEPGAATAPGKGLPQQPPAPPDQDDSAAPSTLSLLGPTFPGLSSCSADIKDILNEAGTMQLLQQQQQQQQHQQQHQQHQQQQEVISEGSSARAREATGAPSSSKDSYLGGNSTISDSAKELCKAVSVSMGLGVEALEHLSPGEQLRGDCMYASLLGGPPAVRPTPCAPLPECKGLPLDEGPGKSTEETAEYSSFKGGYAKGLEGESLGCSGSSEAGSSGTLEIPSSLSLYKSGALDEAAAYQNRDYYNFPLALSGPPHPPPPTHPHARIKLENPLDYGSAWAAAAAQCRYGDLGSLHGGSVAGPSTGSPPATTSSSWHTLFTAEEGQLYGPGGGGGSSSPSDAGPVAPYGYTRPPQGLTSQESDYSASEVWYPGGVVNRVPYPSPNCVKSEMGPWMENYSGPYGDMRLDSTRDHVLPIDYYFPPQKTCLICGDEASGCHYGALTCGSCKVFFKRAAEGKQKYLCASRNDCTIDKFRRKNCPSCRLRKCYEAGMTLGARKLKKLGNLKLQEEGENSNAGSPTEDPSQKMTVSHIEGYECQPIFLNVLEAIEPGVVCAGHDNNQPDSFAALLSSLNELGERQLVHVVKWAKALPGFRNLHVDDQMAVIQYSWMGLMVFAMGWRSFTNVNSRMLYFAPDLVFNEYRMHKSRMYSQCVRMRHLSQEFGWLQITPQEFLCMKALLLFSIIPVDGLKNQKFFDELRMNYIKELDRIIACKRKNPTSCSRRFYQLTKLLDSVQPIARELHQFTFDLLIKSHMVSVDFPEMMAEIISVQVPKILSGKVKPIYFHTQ

| Compound | Hexim-1 protein levels (ratio of Hexim-1 to GAPDH) [1] | p-Akt levels (ratio between p-AKT and GAPDH) [1] | Hexim-1 levels (ratio between Hexim-1 and GAPDH) [2] | serine-81 phosphorylation of the androgen receptor (Western blot after immunoprecipitation) [3] |
| --- | --- | --- | --- | --- |
| C[C@]12CCC(=O)C[C@@H]1CC[C@@H]1[C@@H]2CC[C@]2(C)[C@@H](O)CC[C@@H]12 [DHT, dihydrotestosterone] | induced | correlated with the increased Hexim-1 expression | not changed | – |
| VEGF | induced | correlated with the increased Hexim-1 expression | – | – |
| cyclin dependent kinase 9 (Cdk9) | – | – | – | the serine phosphorylation of AR is significantly increased |

Source: patent publication US9789159B2, “Diagnosis and treatment of prostate cancer” (The Research Foundation for The State University of New York, priority 2011, dated 2017)
